The values that follow come from PubChem BioAssay AID1963867 (Molecular Pharmacology Branch, DTP, NCI, 2024).

One may read the viability, T/C as the result in the treated group divided by that in the control group, in per cent.

Structures are written as SMILES.
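Note: spheroids exposed to agents for seven days before reading; 100% = DMSO vehicle wells so lower means fewer viable cells.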

The subject of the first assay is KRAS-mutant PDC tumor spheroid with HUVEC/MSC, viability. The experiment in a line: Anticancer human tumor 327498-153-R-J2-PDC patient-derived uterine carcinosarcoma cell line growth inhibition [KRAS2]. Conditions: second compound 0.1 µM; first compound 1 µM; stronger effect = lower value. In a few lines: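 KRAS-mutant tumor cells were grown as spheroids with HUVEC endothelial cells and human MSCs as stroma. Targeted agents were tested alone and with KRAS pathway inhibitors. Doses started at or near clinical Cmax, or 10 microM, descending half-log.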
For `CC(C)NCC(C(=O)N1CCN(c2ncnc3c2C(C)CC3O)CC1)c1ccc(Cl)cc1` (stereo not given) + C=CC(=O)N1CCN(c2nc(=O)n(-c3c(C)ccnc3C(C)C)c3nc(-c4c(O)cccc4F)c(F)cc23)C(C)C1, the viability, T/C is 15.3%.
Same read-out and setting: under `CC1COCCN1c1cc(-c2ccnn2C)c2ccnc(-c3ccn[nH]3)c2n1` (stereo not given) + C=CC(=O)N1CCN(c2nc(=O)n(-c3c(C)ccnc3C(C)C)c3nc(-c4c(O)cccc4F)c(F)cc23)C(C)C1 stands 6.25%; under `CCN1CCN(Cc2ccc(Nc3ncc(F)c(-c4cc(F)c5nc(C)n(C(C)C)c5c4)n3)nc2)CC1` + C=CC(=O)N1CCN(c2nc(=O)n(-c3c(C)ccnc3C(C)C)c3nc(-c4c(O)cccc4F)c(F)cc23)C(C)C1, 35.1%.
On the same count and under the same terms, under `CCNC(=O)CC1N=C(c2ccc(Cl)cc2)c2cc(OC)ccc2-n2c(C)nnc21` (stereo not given) + C=CC(=O)N1CCN(c2nc(=O)n(-c3c(C)ccnc3C(C)C)c3nc(-c4c(O)cccc4F)c(F)cc23)C(C)C1 stands 40.4%.

The assay is the same for the next values; noted with them: second compound 0.1 µM; first compound 3.16 µM; stronger effect = lower value.
On to `CC(C)NCC(C(=O)N1CCN(c2ncnc3c2C(C)CC3O)CC1)c1ccc(Cl)cc1` (stereo not given) + C=CC(=O)N1CCN(c2nc(=O)n(-c3c(C)ccnc3C(C)C)c3nc(-c4c(O)cccc4F)c(F)cc23)C(C)C1, for which the viability, T/C was 11.2%.
As to `CC1COCCN1c1cc(-c2ccnn2C)c2ccnc(-c3ccn[nH]3)c2n1` (stereo not given) + C=CC(=O)N1CCN(c2nc(=O)n(-c3c(C)ccnc3C(C)C)c3nc(-c4c(O)cccc4F)c(F)cc23)C(C)C1, the viability, T/C was 5.47%.
Consider `CCNC(=O)CC1N=C(c2ccc(Cl)cc2)c2cc(OC)ccc2-n2c(C)nnc21` (stereo not given) + C=CC(=O)N1CCN(c2nc(=O)n(-c3c(C)ccnc3C(C)C)c3nc(-c4c(O)cccc4F)c(F)cc23)C(C)C1, for which the viability, T/C was 29.7%.

The same assay, now with this note: second compound 0.1 µM; first compound 10 µM; stronger effect = lower value.
As for `CC(C)NCC(C(=O)N1CCN(c2ncnc3c2C(C)CC3O)CC1)c1ccc(Cl)cc1` (stereo not given) + C=CC(=O)N1CCN(c2nc(=O)n(-c3c(C)ccnc3C(C)C)c3nc(-c4c(O)cccc4F)c(F)cc23)C(C)C1, the viability, T/C was 9.06%.
On the same count and under the same terms, the same measure for `CCNC(=O)CC1N=C(c2ccc(Cl)cc2)c2cc(OC)ccc2-n2c(C)nnc21` (stereo not given) + C=CC(=O)N1CCN(c2nc(=O)n(-c3c(C)ccnc3C(C)C)c3nc(-c4c(O)cccc4F)c(F)cc23)C(C)C1: 24.3%.

Staying with this assay, now noted: second compound 0.316 µM; first compound 0.00316 µM; stronger effect = lower value.
Consider `CCN1CCN(Cc2ccc(Nc3ncc(F)c(-c4cc(F)c5nc(C)n(C(C)C)c5c4)n3)nc2)CC1` + C=CC(=O)N1CCN(c2nc(=O)n(-c3c(C)ccnc3C(C)C)c3nc(-c4c(O)cccc4F)c(F)cc23)C(C)C1, for which the viability, T/C was 49.6%.

Staying with this assay, now noted: second compound 0.316 µM; first compound 0.01 µM; stronger effect = lower value.
With `CC1COCCN1c1cc(-c2ccnn2C)c2ccnc(-c3ccn[nH]3)c2n1` (stereo not given) + C=CC(=O)N1CCN(c2nc(=O)n(-c3c(C)ccnc3C(C)C)c3nc(-c4c(O)cccc4F)c(F)cc23)C(C)C1, the viability, T/C was 46.7%.
As for `CCN1CCN(Cc2ccc(Nc3ncc(F)c(-c4cc(F)c5nc(C)n(C(C)C)c5c4)n3)nc2)CC1` + C=CC(=O)N1CCN(c2nc(=O)n(-c3c(C)ccnc3C(C)C)c3nc(-c4c(O)cccc4F)c(F)cc23)C(C)C1, the viability, T/C was 40.5%.

Still in this assay, the particulars now being: second compound 0.316 µM; first compound 0.0316 µM; stronger effect = lower value.
As for `CC(C)NCC(C(=O)N1CCN(c2ncnc3c2C(C)CC3O)CC1)c1ccc(Cl)cc1` (stereo not given) + C=CC(=O)N1CCN(c2nc(=O)n(-c3c(C)ccnc3C(C)C)c3nc(-c4c(O)cccc4F)c(F)cc23)C(C)C1, the viability, T/C was 46.5%.
For the compound `CC1COCCN1c1cc(-c2ccnn2C)c2ccnc(-c3ccn[nH]3)c2n1` (stereo not given) + C=CC(=O)N1CCN(c2nc(=O)n(-c3c(C)ccnc3C(C)C)c3nc(-c4c(O)cccc4F)c(F)cc23)C(C)C1, the viability, T/C was 21.4%.
On the same count and under the same terms, the same measure for `CCN1CCN(Cc2ccc(Nc3ncc(F)c(-c4cc(F)c5nc(C)n(C(C)C)c5c4)n3)nc2)CC1` + C=CC(=O)N1CCN(c2nc(=O)n(-c3c(C)ccnc3C(C)C)c3nc(-c4c(O)cccc4F)c(F)cc23)C(C)C1: 28.2%; for `CCNC(=O)CC1N=C(c2ccc(Cl)cc2)c2cc(OC)ccc2-n2c(C)nnc21` (stereo not given) + C=CC(=O)N1CCN(c2nc(=O)n(-c3c(C)ccnc3C(C)C)c3nc(-c4c(O)cccc4F)c(F)cc23)C(C)C1: 55.6%.

Staying with this assay, now noted: second compound 0.316 µM; first compound 0.1 µM; stronger effect = lower value.
On to `CC(C)NCC(C(=O)N1CCN(c2ncnc3c2C(C)CC3O)CC1)c1ccc(Cl)cc1` (stereo not given) + C=CC(=O)N1CCN(c2nc(=O)n(-c3c(C)ccnc3C(C)C)c3nc(-c4c(O)cccc4F)c(F)cc23)C(C)C1, for which the viability, T/C was 32.4%.
For the compound `CC1COCCN1c1cc(-c2ccnn2C)c2ccnc(-c3ccn[nH]3)c2n1` (stereo not given) + C=CC(=O)N1CCN(c2nc(=O)n(-c3c(C)ccnc3C(C)C)c3nc(-c4c(O)cccc4F)c(F)cc23)C(C)C1, the viability, T/C was 9%.
Still for that read-out and setting: the same measure for `CCN1CCN(Cc2ccc(Nc3ncc(F)c(-c4cc(F)c5nc(C)n(C(C)C)c5c4)n3)nc2)CC1` + C=CC(=O)N1CCN(c2nc(=O)n(-c3c(C)ccnc3C(C)C)c3nc(-c4c(O)cccc4F)c(F)cc23)C(C)C1: 31.1%; for `CCNC(=O)CC1N=C(c2ccc(Cl)cc2)c2cc(OC)ccc2-n2c(C)nnc21` (stereo not given) + C=CC(=O)N1CCN(c2nc(=O)n(-c3c(C)ccnc3C(C)C)c3nc(-c4c(O)cccc4F)c(F)cc23)C(C)C1: 50.7%.

Still in this assay, the particulars now being: second compound 0.316 µM; first compound 0.316 µM; stronger effect = lower value.
As to `CC(C)NCC(C(=O)N1CCN(c2ncnc3c2C(C)CC3O)CC1)c1ccc(Cl)cc1` (stereo not given) + C=CC(=O)N1CCN(c2nc(=O)n(-c3c(C)ccnc3C(C)C)c3nc(-c4c(O)cccc4F)c(F)cc23)C(C)C1, the viability, T/C was 15.7%.
On the same count and under the same terms, under `CC1COCCN1c1cc(-c2ccnn2C)c2ccnc(-c3ccn[nH]3)c2n1` (stereo not given) + C=CC(=O)N1CCN(c2nc(=O)n(-c3c(C)ccnc3C(C)C)c3nc(-c4c(O)cccc4F)c(F)cc23)C(C)C1 stands 6.3%.
Regarding `CCN1CCN(Cc2ccc(Nc3ncc(F)c(-c4cc(F)c5nc(C)n(C(C)C)c5c4)n3)nc2)CC1` + C=CC(=O)N1CCN(c2nc(=O)n(-c3c(C)ccnc3C(C)C)c3nc(-c4c(O)cccc4F)c(F)cc23)C(C)C1, the viability, T/C is 34.9%.
Same read-out and setting: under `CCNC(=O)CC1N=C(c2ccc(Cl)cc2)c2cc(OC)ccc2-n2c(C)nnc21` (stereo not given) + C=CC(=O)N1CCN(c2nc(=O)n(-c3c(C)ccnc3C(C)C)c3nc(-c4c(O)cccc4F)c(F)cc23)C(C)C1 stands 45.7%.

Still in this assay, the particulars now being: second compound 0.316 µM; first compound 1 µM; stronger effect = lower value.
For the compound `CC(C)NCC(C(=O)N1CCN(c2ncnc3c2C(C)CC3O)CC1)c1ccc(Cl)cc1` (stereo not given) + C=CC(=O)N1CCN(c2nc(=O)n(-c3c(C)ccnc3C(C)C)c3nc(-c4c(O)cccc4F)c(F)cc23)C(C)C1, the viability, T/C is 13.5%.
In the case of `CC1COCCN1c1cc(-c2ccnn2C)c2ccnc(-c3ccn[nH]3)c2n1` (stereo not given) + C=CC(=O)N1CCN(c2nc(=O)n(-c3c(C)ccnc3C(C)C)c3nc(-c4c(O)cccc4F)c(F)cc23)C(C)C1, the viability, T/C was 6.22%.
As for `CCN1CCN(Cc2ccc(Nc3ncc(F)c(-c4cc(F)c5nc(C)n(C(C)C)c5c4)n3)nc2)CC1` + C=CC(=O)N1CCN(c2nc(=O)n(-c3c(C)ccnc3C(C)C)c3nc(-c4c(O)cccc4F)c(F)cc23)C(C)C1, the viability, T/C is 40%.
Same read-out and setting: under `CCNC(=O)CC1N=C(c2ccc(Cl)cc2)c2cc(OC)ccc2-n2c(C)nnc21` (stereo not given) + C=CC(=O)N1CCN(c2nc(=O)n(-c3c(C)ccnc3C(C)C)c3nc(-c4c(O)cccc4F)c(F)cc23)C(C)C1 stands 33.5%.

Staying with this assay, now noted: second compound 0.316 µM; first compound 3.16 µM; stronger effect = lower value.
For `CC(C)NCC(C(=O)N1CCN(c2ncnc3c2C(C)CC3O)CC1)c1ccc(Cl)cc1` (stereo not given) + C=CC(=O)N1CCN(c2nc(=O)n(-c3c(C)ccnc3C(C)C)c3nc(-c4c(O)cccc4F)c(F)cc23)C(C)C1, the viability, T/C is 11%.
On to `CC1COCCN1c1cc(-c2ccnn2C)c2ccnc(-c3ccn[nH]3)c2n1` (stereo not given) + C=CC(=O)N1CCN(c2nc(=O)n(-c3c(C)ccnc3C(C)C)c3nc(-c4c(O)cccc4F)c(F)cc23)C(C)C1, for which the viability, T/C was 6.06%.
Same read-out and setting: under `CCNC(=O)CC1N=C(c2ccc(Cl)cc2)c2cc(OC)ccc2-n2c(C)nnc21` (stereo not given) + C=CC(=O)N1CCN(c2nc(=O)n(-c3c(C)ccnc3C(C)C)c3nc(-c4c(O)cccc4F)c(F)cc23)C(C)C1 stands 28.6%.

The same assay, now with this note: second compound 0.316 µM; first compound 10 µM; stronger effect = lower value.
For `CC(C)NCC(C(=O)N1CCN(c2ncnc3c2C(C)CC3O)CC1)c1ccc(Cl)cc1` (stereo not given) + C=CC(=O)N1CCN(c2nc(=O)n(-c3c(C)ccnc3C(C)C)c3nc(-c4c(O)cccc4F)c(F)cc23)C(C)C1, the viability, T/C was 7.87%.
For `CCNC(=O)CC1N=C(c2ccc(Cl)cc2)c2cc(OC)ccc2-n2c(C)nnc21` (stereo not given) + C=CC(=O)N1CCN(c2nc(=O)n(-c3c(C)ccnc3C(C)C)c3nc(-c4c(O)cccc4F)c(F)cc23)C(C)C1, the viability, T/C is 22.3%.

The same assay, now with this note: second compound 1 µM; first compound 0.00316 µM; stronger effect = lower value.
Regarding `CCN1CCN(Cc2ccc(Nc3ncc(F)c(-c4cc(F)c5nc(C)n(C(C)C)c5c4)n3)nc2)CC1` + C=CC(=O)N1CCN(c2nc(=O)n(-c3c(C)ccnc3C(C)C)c3nc(-c4c(O)cccc4F)c(F)cc23)C(C)C1, the viability, T/C is 48.3%.

Still in this assay, the particulars now being: second compound 1 µM; first compound 0.01 µM; stronger effect = lower value.
On to `CC1COCCN1c1cc(-c2ccnn2C)c2ccnc(-c3ccn[nH]3)c2n1` (stereo not given) + C=CC(=O)N1CCN(c2nc(=O)n(-c3c(C)ccnc3C(C)C)c3nc(-c4c(O)cccc4F)c(F)cc23)C(C)C1, for which the viability, T/C was 40.1%.
